Measurements reported in the supplement of paper PMC10307832.

Tests used:
Experiment in all cases: relative viability (nuclei count vs DMSO), 5 days (fraction); higher = more cells survive
[1] = compound: CN(c1ncccc1CNc1nc(Nc2ccc3c(c2)CC(=O)N3)ncc1C(F)(F)F)S(C)(=O)=O + C[C@@H](Oc1cc(-c2cnn(C3CCNCC3)c2)cnc1N)c1c(Cl)ccc(F)c1Cl [Crizotinib] (partner 1 µM)
Outline: (§1)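 Relative viability equals treated-well nuclei counts divided by vehicle-well nuclei counts. Counts came from 4× images of lung cancer cell lines grown in 1536-well plates for 5 days after pin-tool dosing on the day after seeding. Dosing used one drug alone or a fixed anchor-drug dose plus five library-drug doses (not always all listed) in √10 steps, and values are medians of duplicate plates.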

[2] = compound: CN(c1ncccc1CNc1nc(Nc2ccc3c(c2)CC(=O)N3)ncc1C(F)(F)F)S(C)(=O)=O + CC(=O)c1c(C)c2cnc(Nc3ccc(N4CCNCC4)cn3)nc2n(C2CCCC2)c1=O [Palbociclib] (partner 0.5 µM)
Outline: as §1

[3] = compound: CN(c1ncccc1CNc1nc(Nc2ccc3c(c2)CC(=O)N3)ncc1C(F)(F)F)S(C)(=O)=O + O=C(CCCCCCC(=O)Nc1ccccc1)NO [Vorinostat] (partner 1 µM)
Outline: as §1

[4] = compound: CN(c1ncccc1CNc1nc(Nc2ccc3c(c2)CC(=O)N3)ncc1C(F)(F)F)S(C)(=O)=O + NC(=O)Nc1cc(-c2cccc(F)c2)sc1C(=O)N[C@H]1CCCNC1 [AZD7762] (partner 0.2 µM)
Outline: as §1

Cell Line	relative viability ([1]; first compound 0.01 µM)	relative viability ([1]; first compound 0.03162 µM)	relative viability ([1]; first compound 0.1 µM)	relative viability ([1]; first compound 0.3162 µM)	relative viability ([1]; first compound 1 µM)	relative viability ([2]; first compound 0.01 µM)	relative viability ([2]; first compound 0.03162 µM)	relative viability ([2]; first compound 0.1 µM)	relative viability ([2]; first compound 0.3162 µM)	relative viability ([2]; first compound 1 µM)	relative viability ([3]; first compound 0.01 µM)	relative viability ([3]; first compound 0.03162 µM)	relative viability ([3]; first compound 0.1 µM)	relative viability ([3]; first compound 0.3162 µM)	relative viability ([3]; first compound 1 µM)	relative viability ([4]; first compound 0.01 µM)	relative viability ([4]; first compound 0.03162 µM)	relative viability ([4]; first compound 0.1 µM)	relative viability ([4]; first compound 0.3162 µM)	relative viability ([4]; first compound 1 µM)
HOP-62	0.926	1.04	0.962	0.809	1.04	0.469	0.444	0.374	0.412	0.39	0.759	0.769	0.574	0.732	0.596	0.742	0.776	0.531	0.75	0.628
LC-2-ad	0.491	0.465	0.514	0.435	0.469	0.523	0.451	0.522	0.473	0.463	0.739	0.756	0.674	0.635	0.584	0.864	0.808	0.892	0.768	0.811
LCLC-97TM1	–	0.434	0.416	0.224	0.181	0.217	0.176	0.171	0.18	0.158	0.644	0.82	0.609	0.751	0.586	0.264	0.278	0.218	0.267	0.195
LCLC-103H	1.14	1.08	1.11	0.906	0.895	0.499	0.428	0.5	0.471	0.484	0.852	0.725	0.732	0.771	0.769	0.72	0.711	0.734	0.745	0.815
LK-2	0.248	0.215	0.254	0.21	0.192	0.784	0.723	0.666	0.662	0.717	0.215	0.314	0.269	0.218	0.309	0.542	0.517	0.413	0.434	0.397
LOU-NH91	0.78	0.751	0.727	0.692	0.763	0.521	0.512	0.534	0.52	0.492	0.957	0.99	0.852	0.907	0.976	0.793	0.754	0.735	0.746	0.79
LU99A	0.594	0.584	0.584	0.758	0.633	0.406	0.517	0.465	0.411	0.448	0.531	0.526	0.571	0.635	0.531	0.377	0.507	0.509	0.572	0.476
LXF-289	0.851	0.875	0.824	0.788	0.773	0.63	0.592	0.567	0.639	0.582	0.887	0.787	0.782	0.697	0.792	1.16	1.17	1.1	1.13	1.2
NCI-H23	0.444	0.483	0.456	0.59	0.457	0.581	0.538	0.549	0.618	0.455	0.659	0.594	0.633	0.714	0.662	0.245	0.276	0.243	0.289	0.382
NCI-H322M	0.902	0.948	–	0.953	0.892	0.481	0.503	0.529	0.475	0.488	0.883	0.875	0.916	0.97	0.98	0.584	0.556	0.62	0.663	0.813
NCI-H358	0.608	0.449	0.515	0.449	0.303	0.135	0.113	0.145	0.119	0.0943	0.65	0.704	0.692	0.573	0.421	0.552	0.553	0.381	0.533	0.339
NCI-H441	0.679	0.825	0.604	0.692	0.654	0.23	0.239	0.181	0.176	0.16	0.933	0.978	0.824	0.792	0.644	1.07	1.11	1.04	1.18	1.22
NCI-H460	1.1	1.15	0.994	0.891	0.712	0.147	0.179	0.148	0.21	0.15	0.696	0.757	0.615	0.76	0.736	0.714	0.824	0.643	0.661	0.684
NCI-H647	1.01	1.43	1.05	1	1.06	0.349	0.402	0.319	0.367	0.322	0.473	0.742	0.476	0.577	0.631	0.383	0.515	0.611	0.566	0.471
NCI-H650	0.68	0.727	0.675	0.538	0.675	0.324	0.32	0.307	0.266	0.3	0.454	0.565	0.557	0.415	0.303	0.909	1.08	0.822	0.948	0.995
NCI-H727	0.925	1.02	0.633	0.885	0.689	0.681	0.607	0.651	0.684	0.688	1.26	1.29	1.23	1.08	1.34	0.595	0.555	0.447	0.842	0.69
NCI-H838	0.807	1.02	0.873	0.672	0.488	0.243	0.237	0.211	0.204	0.204	0.715	0.731	0.94	0.589	0.437	0.994	0.955	0.964	0.861	0.933
NCI-H1355	1.06	1.13	1.02	0.97	0.924	0.387	0.362	0.407	0.418	0.331	0.67	0.708	0.676	0.589	0.623	0.866	0.864	0.944	0.732	0.697
NCI-H1437	0.912	1.02	0.884	0.856	0.77	0.348	0.297	0.265	0.269	0.209	0.763	0.846	0.697	0.597	0.414	1.12	1.17	1.15	1.08	1.07
NCI-H1651	0.858	0.85	0.871	0.846	0.884	0.527	0.529	0.529	0.487	0.5	0.565	0.566	0.535	0.568	0.571	0.507	0.469	0.488	0.534	0.484
NCI-H1666	0.968	0.951	0.781	0.596	0.642	0.696	0.614	0.627	0.639	0.543	1.07	0.94	0.926	0.758	0.767	0.978	0.834	0.838	0.932	0.847
NCI-H1734	0.684	0.734	0.752	0.656	0.618	0.35	0.327	0.345	0.348	0.304	0.809	0.818	0.799	0.8	0.781	0.55	0.659	0.667	0.782	0.742
NCI-H1755	0.873	0.94	0.889	0.781	0.777	0.449	0.473	0.452	0.44	0.434	0.79	0.756	0.787	0.75	0.66	0.585	0.398	0.488	0.502	0.437
NCI-H1915	0.908	0.915	0.877	0.834	0.885	0.498	0.532	0.58	0.525	0.509	0.535	0.534	0.593	0.536	0.519	0.762	0.654	0.696	0.703	0.76
NCI-H1944	0.998	1.11	1.08	1.08	1.06	0.346	0.342	0.328	0.322	0.312	0.587	0.508	0.586	0.585	0.534	0.723	0.571	0.602	0.672	0.658
NCI-H1975	0.999	0.981	0.911	0.96	0.746	0.602	0.639	0.712	0.532	0.502	0.726	0.688	0.666	0.71	0.613	0.85	0.839	0.822	0.645	0.755
